The values that follow come from patent US10173991B2, “Sulfone amide linked benzothiazole inhibitors of endothelial lipase” (BRISTOL-MYERS SQUIBB COMPANY, priority 2014, dated 2019).

By pIC50 is commonly meant the negative decadic logarithm of the IC50, by convention in mol/L. High values mean a small IC50, low ones a large IC50.

SMILES strings stand for the structures. pIC50: −log10 of the molar value.

Chain of Endothelial lipase (EL) (Q9Y5X9 21-500): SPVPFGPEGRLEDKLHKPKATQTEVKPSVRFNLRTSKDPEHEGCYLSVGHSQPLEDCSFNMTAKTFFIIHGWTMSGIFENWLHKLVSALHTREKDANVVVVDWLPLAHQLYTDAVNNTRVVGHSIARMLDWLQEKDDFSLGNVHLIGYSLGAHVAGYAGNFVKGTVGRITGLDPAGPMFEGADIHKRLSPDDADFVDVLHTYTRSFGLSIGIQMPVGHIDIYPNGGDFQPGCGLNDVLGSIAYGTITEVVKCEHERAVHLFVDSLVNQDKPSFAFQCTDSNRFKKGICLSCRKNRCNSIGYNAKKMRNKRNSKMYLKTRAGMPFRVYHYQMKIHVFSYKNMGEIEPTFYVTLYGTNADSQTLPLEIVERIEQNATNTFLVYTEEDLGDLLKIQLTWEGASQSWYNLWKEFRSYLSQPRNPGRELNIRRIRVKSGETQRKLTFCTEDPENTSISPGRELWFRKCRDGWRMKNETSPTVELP

The first assay concerns the target Endothelial lipase (EL) (Homo sapiens (Human), UniProt Q9Y5X9). Description: Endothelial lipase (EL) enzymatic assay with fluorescent substrate A10070 in DMPG vesicles. The assay is classed as biochemical.
Conditions: not given
A digest of the protocol: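 Compounds were preincubated with enzyme for 30 min at 37° C before FRET-substrate vesicles (A10070 in DMPG, 0.11 mole fraction) were added. Reaction rates were obtained from the 300–900 sec slope of fluorescence at 490/530 nm.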
On to `COCCS(=O)(=O)C(C(=O)NCC(=O)NC1CC1)c1nc2ccc(-c3ccc(C(=O)N4C[C@@H](C)O[C@@H](C)C4)cc3)cc2s1` (stereo partly drawn) [Example 569, N-[(cyclopropyl-carbamoyl)methyl]-2-(6-{4-[(2R,6S)-2,6-dimethyl-morpholine-4-carbonyl]phenyl}-1,3-benzothiazol-2-yl)-2-(2-methoxyethane-sulfonyl)acetamide], for which the pIC50 was 7.70. In the case of `C[C@@H]1CN(C(=O)c2ccc(-c3ccc4nc(C(C(=O)NCC(=O)NC5CC5)S(C)(=O)=O)sc4c3)cc2)C[C@H](C)O1` (stereo partly drawn) [Example 570, N-[(cyclopropyl-carbamoyl)methyl]-2-(6-{4-[(2R,6S)-2,6-dimethyl-morpholine-4-carbonyl]phenyl}-1,3-benzothiazol-2-yl)-2-methanesulfonyl-acetamide], the pIC50 was 8.40.

`COC(C)(C)CNC(=O)c1ccc(-c2ccc3nc(C(C(=O)NCC(=O)NC4CC4)S(C)(=O)=O)sc3c2)cc1` (stereo not drawn) [Example 571, 4-[2-({[(cyclopropyl-carbamoyl)methyl]carbamoyl} (methanesulfonyl)methyl)-1,3-benzothiazol-6-yl]-N-(2-methoxy-2-methylpropyl) benzamide] had a pIC50 of 7.92. Compared with the last compound, the pIC50 is 0.48 log units lower. The same measure, in the same setting: under `COCCS(=O)(=O)C(C(=O)NCC(=O)NC1CC1)c1nc2cc(F)c(-c3ccc(C(=O)NCCc4ccccc4)cc3)cc2s1` (stereo not drawn) [Example 573, 4-[2-({[(cyclopropyl-carbamoyl)methyl]carbamoyl}(2-methoxyethane-sulfonyl)methyl)-5-fluoro-1,3-benzothiazol-6-yl]-N-(2-phenylethyl) benzamide] stands 8.52. The same measure, in the same setting: the same measure for `CS(=O)(=O)C(C(=O)NCC(=O)NC1CC1)c1nc2cc(F)c(-c3ccc(NC(=O)CCc4ccccc4)cc3)cc2s1` (stereo not drawn) [Example 576, N-{4-[2-({[(cyclopropyl-carbamoyl)methyl]carbamoyl} (methanesulfonyl)methyl)-5-fluoro-1,3-benzothiazol-6-yl]phenyl}-3-phenyl-propanamide]: 9.00.

Consider `COCCS(=O)(=O)C(C(=O)NCC(=O)NC1CC1)c1nc2cc(F)c(-c3ccc(NC(=O)CCc4ccccc4)cc3)cc2s1` (stereo not drawn) [Example 577, N-{4-[2-({[(cyclopropyl-carbamoyl)methyl]carbamoyl}(2-methoxyethane-sulfonyl)methyl)-5-fluoro-1,3-benzothiazol-6-yl]phenyl}-3-phenyl-propanamide], for which the pIC50 was 9.00. `CC(C)S(=O)(=O)C(C(=O)NCC(=O)NC1CC1)c1nc2cc(F)c(-c3ccc(NC(=O)CCc4ccccc4)cc3)cc2s1` (stereo not drawn) [Example 578, N-{4-[2-({[(cyclopropyl-carbamoyl)methyl]carbamoyl} (propane-2-sulfonyl)methyl)-5-fluoro-1,3-benzothiazol-6-yl]phenyl}-3-phenyl-propanamide] showed a pIC50 of 8.40. The same measure, in the same setting: under `CS(=O)(=O)C(C(=O)NCC(=O)NC1CC1)c1nc2ccc(-c3ccc(-n4ccnc4)cc3)cc2s1` (stereo not drawn) [Example 580, N-[(cyclopropyl-carbamoyl)methyl]-2-{6-[4-(1H-imidazol-1-yl)phenyl]-1,3-benzothiazol-2-yl}-2-methanesulfonyl-acetamide] stands 7.92; under `COCCS(=O)(=O)C(C(=O)NCC(=O)NC1CC1)c1nc2cc(F)c(-c3ccc(-n4ccnc4)cc3)cc2s1` (stereo not drawn) [Example 581, N-[(cyclopropyl-carbamoyl)methyl]-2-{5-fluoro-6-[4-(1H-imidazol-1-yl)phenyl]-1,3-benzothiazol-2-yl}-2-(2-methoxyethane-sulfonyl)acetamide], 7.44. The same measure, in the same setting: under `CS(=O)(=O)C(C(=O)NCC(=O)NC1CC1)c1nc2ccc(-c3ccc(=O)n(-c4ccccc4)c3)cc2s1` (stereo not drawn) [Example 583, N-[(cyclopropyl-carbamoyl)methyl]-2-methanesulfonyl-2-[6-(6-oxo-1-phenyl-1,6-dihydropyridin-3-yl)-1,3-benzothiazol-2-yl]acetamide] stands 7.70; under `O=C(CNC(=O)C(c1nc2cc(F)c(-c3cnc(-n4cccn4)nc3)cc2s1)S(=O)(=O)CCC(F)(F)F)NC1CC1` (stereo not drawn) [Example 584, N-[(cyclopropyl-carbamoyl)methyl]-2-{5-fluoro-6-[2-(1H-pyrazol-1-yl)pyrimidin-5-yl]-1,3-benzothiazol-2-yl}-2-(3,3,3-trifluoropropane-sulfonyl)acetamide], 7.19. Compound `COCCS(=O)(=O)C(C(=O)NCC(=O)NC1CC1)c1nc2cc(F)c(-c3ccc(-n4ncc(C#N)c4N)cc3)cc2s1` (stereo not drawn) [Example 585, 2-{6-[4-(5-amino-4-cyano-1H-pyrazol-1-yl)phenyl]-5-fluoro-1,3-benzothiazol-2-yl}-N-[(cyclopropyl-carbamoyl)methyl]-2-(2-methoxyethane-sulfonyl)acetamide] showed a pIC50 of 9.00. For `COCCS(=O)(=O)C(C(=O)NCC(=O)NC1CC1)c1nc2cc(F)c(-c3ccc(-n4ncc(C(N)=O)c4N)cc3)cc2s1` (stereo not drawn) [Example 586, 5-amino-1-{4-[2-({[(cyclopropyl-carbamoyl)methyl]carbamoyl}(2-methoxyethane-sulfonyl)methyl)-5-fluoro-1,3-benzothiazol-6-yl]phenyl}-1H-pyrazole-4-carboxamide], the pIC50 is 9.00. Regarding `Cc1nn(-c2ccc(-c3cc4sc(C(C(=O)NCC(=O)NC5CC5)S(=O)(=O)CCC(F)(F)F)nc4cc3F)cc2)c(N)c1C#N` (stereo not drawn) [Example 587, 2-{6-[4-(5-amino-4-cyano-3-methyl-1H-pyrazol-1-yl)phenyl]-5-fluoro-1,3-benzothiazol-2-yl}-N-[(cyclopropyl-carbamoyl)methyl]-2-(3,3,3-trifluoropropane-sulfonyl)acetamide], the pIC50 was 8.52. For the compound `O=C(CNC(=O)C(c1nc2cc(F)c(-c3ccc(-n4nc(C(F)(F)F)cc4C(=O)O)cc3)cc2s1)S(=O)(=O)CCC(F)(F)F)NC1CC1` (stereo not drawn) [Example 588, 1-{4-[2-({[(cyclopropyl-carbamoyl)methyl]carbamoyl}(3,3,3-trifluoropropane-sulfonyl)methyl)-5-fluoro-1,3-benzothiazol-6-yl]phenyl}-3-(trifluoromethyl)-1H-pyrazole-5-carboxylic acid], the pIC50 was 8.22. As to `O=C(CNC(=O)C(c1nc2cc(F)c(-c3ccc4c(c3)CCCN4C(=O)Cc3c(F)cccc3F)cc2s1)S(=O)(=O)CCC(F)(F)F)NC1CC1` (stereo not drawn) [Example 590, N-[(cyclopropyl-carbamoyl)methyl]-2-(6-{1-[2-(2,6-difluorophenyl)acetyl]-1,2,3,4-tetrahydroquinolin-6-yl}-5-fluoro-1,3-benzothiazol-2-yl)-2-(3,3,3-trifluoropropane-sulfonyl)acetamide], the pIC50 is 8.10. Still for that read-out and setting: under `O=C(CNC(=O)C(c1nc2cc(F)c(-c3ccc(=O)n(Cc4ccccc4)c3)cc2s1)S(=O)(=O)CCC(F)(F)F)NC1CC1` (stereo not drawn) [Example 592, 2-[6-(1-benzyl-6-oxo-1,6-dihydropyridin-3-yl)-5-fluoro-1,3-benzothiazol-2-yl]-N-[(cyclopropyl-carbamoyl)methyl]-2-(3,3,3-trifluoropropane-sulfonyl)acetamide] stands 8.30.

`COCCS(=O)(=O)C(C(=O)NCC(=O)NC1CC1)c1nc2cc(F)c(-c3ccc(-c4nnn(C)n4)cc3)cc2s1` (stereo not drawn) [Example 593, N-[(cyclopropyl-carbamoyl)methyl]-2-{5-fluoro-6-[4-(2-methyl-2H-1,2,3,4-tetrazol-5-yl)phenyl]-1,3-benzothiazol-2-yl}-2-(2-methoxyethane-sulfonyl)acetamide] had a pIC50 of 8.05. On the same count and under the same terms, the same measure for `COCCS(=O)(=O)C(C(=O)NCC(=O)NC1CC1)c1nc2cc(F)c(-c3ccc(-c4nnnn4C)cc3)cc2s1` (stereo not drawn) [Example 594, N-[(cyclopropyl-carbamoyl)methyl]-2-{5-fluoro-6-[4-(1-methyl-1H-1,2,3,4-tetrazol-5-yl)phenyl]-1,3-benzothiazol-2-yl}-2-(2-methoxyethane-sulfonyl)acetamide]: 7.17.

The assay is the same for the next values; noted with them: EL from conditioned media of HT-1080 cells; 30 min preincubation at 37° C.
The compound `O=C(CNC(=O)C(c1nc2cc(F)c(-c3ccc(C(=O)NCCc4ccccc4)cc3)cc2s1)S(=O)(=O)CCC(F)(F)F)NC1CC1` (stereo not drawn) [Example 572, 4-[2-({[(Cyclopropylcarbamoyl)methyl]carbamoyl}(3,3,3-trifluoropropanesulfonyl)methyl)-5-fluoro-1,3-benzothiazol-6-yl]-N-(2-phenylethyl)benzamide] showed a pIC50 of 8.55.

`O=C(CCc1ccccc1)Nc1ccc(-c2cc3sc(C(C(=O)NCC(=O)NC4CC4)S(=O)(=O)CCC(F)(F)F)nc3cc2F)cc1` (stereo not drawn) [Example 575, N-{4-[2-({[(Cyclopropylcarbamoyl)methyl]carbamoyl}(3,3,3-trifluoropropanesulfonyl)methyl)-5-fluoro-1,3-benzothiazol-6-yl]phenyl}-3-phenylpropanamide] gave a pIC50 of 9.05. Take `CS(=O)(=O)C(C(=O)NCC(=O)NC1CC1)c1nc2cc(F)c(-c3ccc(-n4ccnc4)cc3)cc2s1` (stereo not drawn) [Example 579, N-[(Cyclopropylcarbamoyl)methyl]-2-{5-fluoro-6-[4-(1H-imidazol-1-yl)phenyl]-1,3-benzothiazol-2-yl}-2-methanesulfonylacetamide]: the pIC50 was 8.22.

Consider `O=C(CNC(=O)C(c1nc2cc(F)c(-c3cccn(Cc4ccccc4)c3=O)cc2s1)S(=O)(=O)CCC(F)(F)F)NC1CC1` (stereo not drawn) [Example 591, 2-[6-(1-Benzyl-2-oxo-1,2-dihydropyridin-3-yl)-5-fluoro-1,3-benzothiazol-2-yl]-N-[(cyclopropylcarbamoyl)methyl]-2-(3,3,3-trifluoropropanesulfonyl)acetamide], for which the pIC50 is 6.57. As to `COCCNC(=O)CNC(=O)C(c1nc2ccc(-c3ccc4c(c3)CN(C3CC3)C4=O)cc2s1)S(=O)(=O)c1ccc(F)cc1` (stereo not drawn) [Example 595, 2-(6-(2-Cyclopropyl-1-oxoisoindolin-5-yl)benzo[d]thiazol-2-yl)-2-((4-fluorophenyl)sulfonyl)-N-(2-((2-methoxyethyl)amino)-2-oxoethyl)], the pIC50 was 7.62. Against the preceding compound, the pIC50 is 1.05 log units higher.
